Columns and labels:
EphB4 = EphB4 (Homo sapiens (Human), UniProt P54760); assay: EphB4 kinase inhibition, 33P phosphoryl transfer assay (radiometric); assay type: biochemical
Protocol: Phosphorylated substrate products are quantified by scintillation spectrometry.
Kinase activity and compound inhibition are investigated using one or more of the three assay formats described below. The ATP concentrations are selected near its Michaelis-Menten constant (KM) for each individual kinase. Dose-response experiments are performed at ten different inhibitor concentrations in a 384-well plate format. […] These parameters are obtained by nonlinear regression algorithm built into ActivityBase software (available from ID Business Solutions Ltd., of Guildford, Surrey, UK). ^33P Phosphoryl Transfer Assay (Radiometric)
Greiner 384-well white clear bottom high binding plates (available from Greiner Bio-One, Inc., of Longwood, Fla.) are coated with 2 μg/well of protein or peptide substrate in a 50 μL volume overnight at ambient temperature. […] The coating solution is aspirated and the plates are washed once with 50 μL of assay buffer and padded dry. Subsequently compounds and enzymes are mixed with γ ^33P-ATP (3.3 μCi/nmol) in a total volume of 20 uL in suitable assay buffers (see Table 2). For example the final EphB4 reaction solution contains 20 mM TrisHCl, pH 7.5, 10 mM MgCl2, 0.01% Triton X-100, 0.1 mM NaVO3, 5 nM EphB4 enzyme and 5 μM ATP. […] The plates are subsequently washed 6-12 times with PBST or TBS buffer.

EphA2 = EphA2 (Homo sapiens (Human), UniProt P29317); assay: EphA2 kinase inhibition, luciferase-coupled chemiluminescent assay (LCCA); details: read-out: EphA2 IC50
Protocol: (§1) Kinase activity and compound inhibition are investigated using one or more of the three assay formats described below. The ATP concentrations are selected near its Michaelis-Menten constant (KM) for each individual kinase. Dose-response experiments are performed at ten different inhibitor concentrations in a 384-well plate format. […] Typically H is close to unity.
(§2) In the LCCA assays, kinase activity is measured by the ATP consumption that is accurately measured by luciferase-coupled chemiluminescence. Greiner 384-well white clear bottom medium binding plates are used for LCCA. Briefly the kinase reaction is initiated by mixing compounds, ATP and kinases in a 20 μL volume. At the end of the kinase reaction, a 20 μL luciferase-luciferin mix is added and the chemiluminescent signal is read on a Wallac Victor^2 reader.

EGFR = EGFR (Homo sapiens (Human), UniProt P00533); assay: EGFR kinase inhibition, luciferase-coupled chemiluminescent assay (LCCA); details: read-out: EGFR IC50
Chain of EGFR (P00533 672-1210): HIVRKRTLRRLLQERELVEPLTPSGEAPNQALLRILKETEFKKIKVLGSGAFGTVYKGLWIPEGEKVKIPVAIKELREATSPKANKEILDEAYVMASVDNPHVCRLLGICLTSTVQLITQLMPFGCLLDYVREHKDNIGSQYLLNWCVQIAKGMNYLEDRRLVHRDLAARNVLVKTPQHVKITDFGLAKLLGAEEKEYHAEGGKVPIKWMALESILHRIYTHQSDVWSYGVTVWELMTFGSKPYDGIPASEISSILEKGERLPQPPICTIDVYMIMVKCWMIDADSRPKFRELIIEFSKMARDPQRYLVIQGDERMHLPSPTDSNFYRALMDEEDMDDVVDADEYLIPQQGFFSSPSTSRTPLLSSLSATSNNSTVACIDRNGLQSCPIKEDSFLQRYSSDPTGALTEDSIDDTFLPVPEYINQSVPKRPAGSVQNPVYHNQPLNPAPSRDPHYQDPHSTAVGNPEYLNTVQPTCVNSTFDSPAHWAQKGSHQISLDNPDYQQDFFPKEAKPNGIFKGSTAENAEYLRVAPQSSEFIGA
Protocol: as §1, §2

Chain of EphA2 (P29317 598-890): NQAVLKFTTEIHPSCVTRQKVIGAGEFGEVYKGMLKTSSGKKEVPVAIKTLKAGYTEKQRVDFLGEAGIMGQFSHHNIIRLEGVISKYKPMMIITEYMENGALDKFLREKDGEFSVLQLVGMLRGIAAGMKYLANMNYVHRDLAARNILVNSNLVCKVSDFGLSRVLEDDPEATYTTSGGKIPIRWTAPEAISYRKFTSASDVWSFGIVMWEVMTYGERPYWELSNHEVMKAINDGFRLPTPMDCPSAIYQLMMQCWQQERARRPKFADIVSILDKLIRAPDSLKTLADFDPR
Chain of EphB4 (P54760 605-890): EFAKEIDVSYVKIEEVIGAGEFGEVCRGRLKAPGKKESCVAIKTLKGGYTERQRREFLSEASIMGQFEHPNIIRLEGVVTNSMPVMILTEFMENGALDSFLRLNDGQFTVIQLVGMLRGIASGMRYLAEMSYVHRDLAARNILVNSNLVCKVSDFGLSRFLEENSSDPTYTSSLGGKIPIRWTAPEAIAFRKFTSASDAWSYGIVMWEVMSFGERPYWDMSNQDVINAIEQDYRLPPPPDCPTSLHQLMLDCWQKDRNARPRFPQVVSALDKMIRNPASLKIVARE

Row | Structure (SMILES) | IC50 (EphB4) [nM] | IC50 (EphA2) [nM] | IC50 (EGFR) [nM]
1 | COc1cc2c(Nc3ccc(Cl)c(Cl)c3)ncnc2cc1OCc1cccnc1 [Example 179, N-(3,4-dichlorophenyl)-6-(methyloxy)-7-[(pyridin-3-ylmethyl)oxy]quinazolin-4-amine] |  | 1000 to 20000 | < 50
2 | COc1cc2c(Nc3ccc(Cl)c(Cl)c3)ncnc2cc1OCC1CC1 [Example 182, 7-[(cyclopropylmethyl)oxy]-N-(3,4-dichlorophenyl)-6-(methyloxy)quinazolin-4-amine] | 50 to 1000 | 50 to 1000 | < 50
3 | COc1cc2c(Nc3ccc(Cl)c(Cl)c3)ncnc2cc1OC1CCCC1 [Example 184, 7-(cyclopentyloxy)-N-(3,4-dichlorophenyl)-6-(methyloxy)quinazolin-4-amine] | 50 to 1000 | 1000 to 20000 | < 50
4 | COc1cc2c(Nc3ccc(Cl)c(Cl)c3)ncnc2cc1OCCC1CCCCC1 [Example 185, 7-[(2-cyclohexylethyl)oxy]-N-(3,4-dichlorophenyl)-6-(methyloxy)quinazolin-4-amine] | 50 to 1000 | 50 to 1000 | < 50
5 | COc1cc2c(Nc3ccc(Cl)c(Cl)c3)ncnc2cc1OCC1CCCCC1 [Example 186, 7-[(cyclohexylmethyl)oxy]-N-(3,4-dichlorophenyl)-6-(methyloxy)quinazolin-4-amine] | < 50 | 50 to 1000 | < 50
6 | COc1cc2c(Nc3ccc(Cl)c(Cl)c3)ncnc2cc1OCCC1OCCO1 [Example 188, N-(3,4-dichlorophenyl)-7-{[2-(1,3-dioxolan-2-yl)ethyl]oxy}-6-(methyloxy)quinazolin-4-amine] | 50 to 1000 | 50 to 1000 | < 50
7 | COc1cc2c(Nc3ccc(Cl)c(Cl)c3)ncnc2cc1OCCC1OCCCO1 [Example 189, N-(3,4-dichlorophenyl)-7-{[2-(1,3-dioxan-2-yl)ethyl]oxy}-6-(methyloxy)quinazolin-4-amine] | 50 to 1000 | 50 to 1000 | < 50
8 | COc1cc2c(Nc3ccc(Cl)c(Cl)c3)ncnc2cc1OCCN1CCOCC1 [Example 190, N-(3,4-dichlorophenyl)-6-(methyloxy)-7-[(2-morpholin-4-ylethyl)oxy]quinazolin-4-amine] | 50 to 1000 | 50 to 1000 | < 50
9 | COc1cc2c(Nc3ccc(Cl)c(Cl)c3)ncnc2cc1OCc1nc(N2CCNCC2)no1 [Example 217, N-(3,4-dichlorophenyl)-6-(methyloxy)-7-{[(3-piperazin-1-yl-1,2,4-oxadiazol-5-yl)methyl]oxy}quinazolin-4-amine] |  | < 50 | 
10 | COc1cc2c(Nc3ccc(Cl)c(Cl)c3)ncnc2cc1OCc1csc(-c2ccc(C(F)(F)F)cc2)n1 [Example 222, N-(3,4-dichlorophenyl)-6-(methyloxy)-7-[({2-[4-(trifluoromethyl)phenyl]-1,3-thiazol-4-yl}methyl)oxy]quinazolin-4-amine] | 50 to 1000 |  | < 50
11 | COc1cc2c(Nc3ccc(Cl)c(Cl)c3)ncnc2cc1OCc1c(F)cccc1F [Example 233, N-(3,4-dichlorophenyl)-7-{[(2,6-difluorophenyl)methyl]oxy}-6-(methyloxy)quinazolin-4-amine] | < 50 |  | < 50
12 | CCCN1CCCOC(COc2cc3ncnc(Nc4ccc(Cl)c(Cl)c4)c3cc2OC)C1 (centres unmarked) [Example 258, N-(3,4-dichlorophenyl)-6-(methyloxy)-7-{[(4-propyl-1,4-oxazepan-2-yl)methyl]oxy}quinazolin-4-amine] | 50 to 1000 |  | < 50
13 | COc1cc2c(Nc3ccc(Cl)c(Cl)c3)ncnc2cc1OCC1CN(CC2CC2)CCCO1 (centres unmarked) [Example 259, 7-({[4-(cyclopropylmethyl)-1,4-oxazepan-2-yl]methyl}oxy)-N-(3,4-dichlorophenyl)-6-(methyloxy)quinazolin-4-amine] | 50 to 1000 |  | < 50
14 | COc1cc2c(Nc3ccc(Cl)c(Cl)c3)ncnc2cc1OCC1CN(C2CCCC2)CCO1 (centres unmarked) [Example 269, 7-{[(4-cyclopentylmorpholin-2-yl)methyl]oxy}-N-(3,4-dichlorophenyl)-6-(methyloxy)quinazolin-4-amine] | 50 to 1000 |  | < 50

More lines, now with the values ahead:

Row | IC50 (EphB4) [nM] | IC50 (EphA2) [nM] | IC50 (EGFR) [nM] | Structure (SMILES)
15 | < 50 | 50 to 1000 | < 50 | COc1cc2c(Nc3ccc(Cl)c(Cl)c3)ncnc2cc1OC[C@H]1O[C@H](OC)[C@H](O)[C@@H](O)[C@@H]1O (stereo in doubt) [Example 194, methyl 6-O-[4-[(3,4-dichlorophenyl)amino]-6-(methyloxy)quinazolin-7-yl]-alpha-D-glucopyranoside]
16 | 1000 to 20000 | 1000 to 20000 | < 50 | COc1cc2c(Nc3cc(Cl)c(Cl)cc3F)ncnc2cc1OC[C@@H]1CO[C@H]2[C@@H]1OC[C@@H]2OC [Example 48, 1,4:3,6-dianhydro-5-deoxy-5-({[4-[(4,5-dichloro-2-fluorophenyl)amino]-6-(methyloxy)quinazolin-7-yl]oxy}methyl)-2-O-methyl-D-glucitol]
17 | 50 to 1000 | 50 to 1000 | < 50 | COc1cc2c(Nc3cccc(Cl)c3F)ncnc2cc1O[C@H]1CO[C@H]2[C@@H]1OC[C@@H]2OC [Example 71, 1,4:3,6-dianhydro-2-O-[4-[(3-chloro-2-fluorophenyl)amino]-6-(methyloxy)quinazolin-7-yl]-5-O-methyl-L-iditol]
18 | 50 to 1000 | 50 to 1000 | < 50 | COc1cc2c(Nc3ccc(Cl)c(Cl)c3)ncnc2cc1O[C@H]1CO[C@H]2[C@@H]1OC[C@@H]2OC [Example 72, 1,4:3,6-dianhydro-2-O-[4-[(3,4-dichlorophenyl)amino]-6-(methyloxy)quinazolin-7-yl]-5-O-methyl-L-iditol]
19 | 50 to 1000 | 1000 to 20000 | < 50 | CCO[C@H]1CO[C@H]2[C@@H]1OC[C@@H]2Oc1cc2ncnc(Nc3ccc(Br)c(Cl)c3)c2cc1OC [Example 74, 1,4:3,6-dianhydro-2-O-[4-[(4-bromo-3-chlorophenyl)amino]-6-(methyloxy)quinazolin-7-yl]-5-O-ethyl-L-iditol]
20 | < 50 | 50 to 1000 | < 50 | COc1cc2c(Nc3cccc(Br)c3C)ncnc2cc1O[C@H]1CO[C@H]2[C@@H]1OC[C@@H]2OC [Example 75, 1,4:3,6-dianhydro-2-O-[4-[(3-bromo-2-methylphenyl)amino]-6-(methyloxy)quinazolin-7-yl]-5-O-methyl-L-iditol]
21 | 50 to 1000 | 50 to 1000 | < 50 | COc1cc2c(Nc3cccc(Cl)c3C)ncnc2cc1O[C@H]1CO[C@H]2[C@@H]1OC[C@@H]2OC [Example 76, 1,4:3,6-dianhydro-2-O-[4-[(3-chloro-2-methylphenyl)amino]-6-(methyloxy)quinazolin-7-yl]-5-O-methyl-L-iditol]
22 | < 50 | < 50 | < 50 | COc1cc2c(Nc3cc(Cl)ccc3Cl)ncnc2cc1O[C@@H]1CO[C@@H]2[C@H]1OC[C@H]2F [Example 118, 1,4:3,6-dianhydro-2-deoxy-5-O-[4-[(2,5-dichlorophenyl)amino]-6-(methyloxy)quinazolin-7-yl]-2-fluoro-D-iditol]
23 | 50 to 1000 |  | < 50 | COc1cc2c(Nc3ccc(Cl)c(Cl)c3)ncnc2cc1OCc1noc(C2CCCCN2)n1 (centres unmarked) [Example 145, N-(3,4-dichlorophenyl)-6-(methyloxy)-7-{[(5-piperidin-2-yl-1,2,4-oxadiazol-3-yl)methyl]oxy}quinazolin-4-amine]
24 | 50 to 1000 |  | < 50 | COc1cc2c(Nc3ccc(Cl)c(Cl)c3)ncnc2cc1OCC1CN(Cc2ccccc2)CCO1 (centres unmarked) [Example 147, N-(3,4-dichlorophenyl)-6-(methyloxy)-7-({[4-(phenylmethyl)morpholin-2-yl]methyl}oxy)quinazolin-4-amine]
25 | 50 to 1000 | 50 to 1000 | < 50 | COc1cc2c(Nc3ccc(Cl)c(Cl)c3)ncnc2cc1OCC1CN(C)CCO1 (centres unmarked) [Example 151, N-(3,4-dichlorophenyl)-7-{[(4-methylmorpholin-2-yl)methyl]oxy}-6-(methyloxy)quinazolin-4-amine]
26 | 50 to 1000 |  | < 50 | COc1cc2c(Nc3ccc(Cl)c(Cl)c3)ncnc2cc1OCc1noc(C2CCCNC2)n1 (centres unmarked) [Example 153, N-(3,4-dichlorophenyl)-6-(methyloxy)-7-{[(5-piperidin-3-yl-1,2,4-oxadiazol-3-yl)methyl]oxy}quinazolin-4-amine]
27 | 50 to 1000 |  | < 50 | COc1cc2c(Nc3ccc(Cl)c(Cl)c3)ncnc2cc1OCc1noc(C2CCCN(C)C2)n1 (centres unmarked) [Example 156, N-(3,4-dichlorophenyl)-6-(methyloxy)-7-({[5-(1-methylpiperidin-3-yl)-1,2,4-oxadiazol-3-yl]methyl}oxy)quinazolin-4-amine]
28 | < 50 |  | < 50 | COc1cc2c(Nc3ccc(Cl)c(Cl)c3)ncnc2cc1OCc1ccncc1 [Example 172, N-(3,4-dichlorophenyl)-6-(methyloxy)-7-[(pyridin-4-ylmethyl)oxy]quinazolin-4-amine]
